Where two headings read alike, the source gives them in different places. One block for each molecule: values may come before it. Ends that are not written are not given here.
Key:
isolated G cells [1] = test: Gastrin release from isolated G cells; type: cell-based; details: for EC50: read-out: EC50, stimulation of gastrin release
Procedure: (§1) The effect of the ovarian hormone, estrogen on G cell function was evaluated.

isolated G cells [2] = test: cAMP production in isolated G cells; type: cell-based
Procedure: as §1

G cells = test: Calcium influx in G cells (flow cytometry, FITC shift); type: cell-based; details: CaCl2 4 mM
isolated rodent G cells = details: for EC50: read-out: Calcium (EC50); for IC50: read-out: OCTR (IC50)
Excerpt: This animal has been extensively studied as a model of gastric acid pathophysiology relevant to long-term pharmacological inhibition of acid secretion (low acid state pathobiology).

CCK2 receptor = molecular target: T1, CCK2 receptor (Homo sapiens, UniProt P32239); test: Gastrin-stimulated cAMP production and calcitonin release/transcription in MTC-SK cells; type: cell-based; details: H-89 10 μM preincubation
T1 construct: Gastrin stimulated both cAMP as well as calcitonin release from the well-differentiated human MTC cell line, MTC-SK; endogenous in cells; host or cells: MTC-SK (human medullary thyroid carcinoma cell line)
T1 sequence (P32239 1-447): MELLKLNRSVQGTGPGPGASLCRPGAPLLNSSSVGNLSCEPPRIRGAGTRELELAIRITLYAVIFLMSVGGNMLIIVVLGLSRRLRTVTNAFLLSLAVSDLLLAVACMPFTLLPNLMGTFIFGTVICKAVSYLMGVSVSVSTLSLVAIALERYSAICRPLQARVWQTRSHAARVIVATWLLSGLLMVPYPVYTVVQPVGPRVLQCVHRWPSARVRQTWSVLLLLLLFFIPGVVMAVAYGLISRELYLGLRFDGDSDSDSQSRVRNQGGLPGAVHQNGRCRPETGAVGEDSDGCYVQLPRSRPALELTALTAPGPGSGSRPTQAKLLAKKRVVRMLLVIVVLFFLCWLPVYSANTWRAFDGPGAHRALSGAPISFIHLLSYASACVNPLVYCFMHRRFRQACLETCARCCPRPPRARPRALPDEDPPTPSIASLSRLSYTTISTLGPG

isolated G cells [3] = test: Gastrin release from isolated G cells; type: cell-based; details: for effect on CaCl2-mediated gastrin release: nifedipine 1 μm (preincubation 10 mins), H-89 10 μM, PD98059 0.1 μM, wortmannin 1 nM
[4] = Plasma gastrin in Mastomys under irreversible gastric acid suppression; type: in vivo; details: Mastomys 6-9 months, treated 30 days, Loxtidine 1 mg/L in drinking water
Excerpt: This animal has been extensively studied as a model of gastric acid pathophysiology relevant to long-term pharmacological inhibition of acid secretion (low acid state pathobiology). […] Such treatment therefore results in an achlorhydric and hypergastrinemic animal model.

Mastomys femur = test: Bone histomorphometry (TRAP-positive osteoclasts) in loxtidine-treated Mastomys; type: in vivo
Procedure: In one aspect, the changes in loxtidine-treated animals reflect loss of bone mineralization and increased resorption—features consistent with osteoporotic phenotypes. BM=bone mineralization, RC=resorption cavity.
Animals (females) 4-6 months old were treated with Loxtidine for 60 or 120 days. Age- and sex-matched untreated animals provided a control group.
Thereafter, bone histomorphometry was examined. […] Evidence of osteoid seams and osteomalacia was also noted (FIG. 21).

PTH chief cells = details: read-out: EC50, stimulation of PTH release; human PTH chief cells
[5] = 0.02-4 U/min, young anesthetized pigs; cited from earlier work
[6] = tested on: MAPK phosphorylation in G cells; test: MAPK phosphorylation in G cells; type: cell-based; details: preincubation
[7] = molecular target: gastrin/CCK2 receptor (human, on isolated PTH chief cells and on the MTC-SK cell line) (human) (UniProt P32239); test: cell-based or functional assay
PTH receptor on G cells = test: cell-based or functional assay
[8] = molecular target: T2, calcitonin receptor on G cells; test: cell-based or functional assay
T2 sequence (P30988 whole entry, species assumed, looked up): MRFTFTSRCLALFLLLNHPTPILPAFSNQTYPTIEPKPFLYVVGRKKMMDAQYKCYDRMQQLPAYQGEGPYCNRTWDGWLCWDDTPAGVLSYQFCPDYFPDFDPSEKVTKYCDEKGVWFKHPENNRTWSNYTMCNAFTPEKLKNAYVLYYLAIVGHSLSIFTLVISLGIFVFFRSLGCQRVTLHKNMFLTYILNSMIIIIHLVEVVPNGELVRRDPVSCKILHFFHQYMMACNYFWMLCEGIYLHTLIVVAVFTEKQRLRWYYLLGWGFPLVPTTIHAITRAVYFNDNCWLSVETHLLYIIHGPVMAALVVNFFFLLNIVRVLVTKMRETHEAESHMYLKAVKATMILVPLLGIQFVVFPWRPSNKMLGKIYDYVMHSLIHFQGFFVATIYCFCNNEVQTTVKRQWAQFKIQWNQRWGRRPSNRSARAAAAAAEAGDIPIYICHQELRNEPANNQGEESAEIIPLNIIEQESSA

[9] = H-89 10 μM preincubation 10 mins

IC50 (isolated G cells [2]; read-out: I50, inhibition of cAMP production): 3.8 nM
Molecule: CC(C)C[C@H](NC(=O)[C@H](CCCCN)NC(=O)CNC(=O)[C@H](CC(C)C)NC(=O)[C@@H](NC(=O)[C@@H]1CSSC[C@H](N)C(=O)N[C@@H](CO)C(=O)N[C@@H](CC(N)=O)C(=O)N[C@@H](CC(C)C)C(=O)N[C@@H](CO)C(=O)N[C@@H]([C@@H](C)O)C(=O)N1)C(C)C)C(=O)N[C@@H](CO)C(=O)N[C@@H](CCC(N)=O)C(=O)N[C@@H](CCC(=O)O)C(=O)N[C@@H](CC(C)C)C(=O)N[C@@H](Cc1c[nH]cn1)C(=O)N[C@@H](CCCCN)C(=O)N[C@@H](CC(C)C)C(=O)N[C@@H](CCC(N)=O)C(=O)N[C@H](C(=O)N[C@@H](Cc1ccc(O)cc1)C(=O)N1CCC[C@H]1C(=O)N[C@@H](CCCNC(=N)N)C(=O)N[C@H](C(=O)N[C@@H](CC(N)=O)C(=O)N[C@H](C(=O)NCC(=O)N[C@@H](CO)C(=O)NCC(=O)N[C@H](C(=O)N1CCC[C@H]1C(N)=O)[C@@H](C)O)[C@@H](C)O)[C@@H](C)O)[C@@H](C)O [Calcitonin]
inhibition of gastrin release (isolated G cells [1]): ~20% | inhibition of cAMP production (isolated G cells [2]): 20%

EC50 (isolated G cells [1]; isolated G cells): 4.1 mM | EC50 (isolated rodent G cells; Low acid G-cells): 10 mM
Molecule: [Ca+2].[Cl-].[Cl-] [CaCl2]
stimulation of gastrin release (isolated G cells [1]; isolated G cells): 8 fold | cAMP production during calcium-mediated gastrin secretion (isolated G cells [2]): not associated with cAMP production | calcium influx (FITC shift rightwards) (G cells): > 5 fold | EC50 (isolated rodent G cells; Normal G-cells): 4 mM

effect on gastrin-stimulated cAMP production (CCK2 receptor): inhibited | effect on gastrin-stimulated calcitonin gene transcription (CCK2 receptor): reversed
Molecule: O=S(=O)(NCCNC/C=C/c1ccc(Br)cc1)c1cccc2cnccc12 [H-89]
effect on PTH-stimulated cAMP production (isolated G cells [2]; [9]): reversed | effect on calcitonin inhibition of gastrin release (isolated G cells [3]; H-89 10 μM preincubation): reversed | effect on PTH-stimulated gastrin release (isolated G cells [3]; [9]): inhibited | effect on CaCl2-mediated gastrin release (isolated G cells [3]): could not be inhibited

EC50 (isolated G cells [1]; estimated): 6e-05 mM | EC50 (isolated G cells [2]; read-out: E50, stimulation of cAMP production): 4 nM
Molecule: PTH: parathyroid hormone
stimulation of gastrin release (isolated G cells [1]; isolated G cells): ~8 fold | stimulation of cAMP production (isolated G cells [2]): 250%

IC50 (isolated G cells [1]; read-out: IC50, inhibition of gastrin release): 4.6 pM | IC50 (isolated G cells [2]; read-out: IC50, inhibition of cAMP synthesis): 0.0011 nM
Molecule: C[C@]12CC[C@@H]3c4ccc(O)cc4CC[C@H]3[C@@H]1CC[C@@H]2O [17β-estradiol]
inhibition of gastrin release (isolated G cells [1]): ~20% | inhibition of cAMP production (isolated G cells [2]): −15% | inhibition of MAPK phosphorylation [6]: 75%

PTH release from isolated human PTH chief cells [7]: 420 pM | PTH synthesis in isolated human PTH chief cells [7]: 1 nM | cAMP production in MTC-SK cells [7]: 0.67 pM
Molecule: gastrin (ligand)

inhibition of cAMP production in isolated G cells [8]: 3.8 nM | inhibition of gastrin release from isolated G cells [8]: 1.9 nM
Molecule: CGNLSTCMLGTYTQDFNKFHTFPQTAIGVGAP (ligand, UniProt P01258 85-116, looked up, species assumed, ends and bridges not checked; cysteine pairing not given here) [calcitonin]

The remaining lines, values behind:

Molecule: Cn1nc(CO)nc1NCCCOc1cccc(CN2CCCCC2)c1 [Loxtidine]
plasma gastrin levels [4]: 104 ± 23 pg/mL | numbers of TRAP-positive osteoclasts (Mastomys femur; 8-week treated Mastomys): 15±6 | numbers of TRAP-positive osteoclasts (Mastomys femur; 16-week treated Mastomys): 16±4.5

Molecule: CSCC[C@H](NC(=O)[C@H](Cc1c[nH]c2ccccc12)NC(=O)CNC(=O)[C@H](Cc1ccc(O)cc1)NC(=O)[C@H](C)NC(=O)[C@H](CCC(=O)O)NC(=O)[C@H](CCC(=O)O)NC(=O)[C@H](CCC(=O)O)NC(=O)[C@H](CCC(=O)O)NC(=O)[C@H](CCC(=O)O)NC(=O)[C@H](CC(C)C)NC(=O)[C@H](Cc1c[nH]c2ccccc12)NC(=O)[C@@H]1CCCN1C(=O)CNC(=O)[C@@H]1CCC(=O)N1)C(=O)N[C@@H](CC(=O)O)C(=O)N[C@@H](Cc1ccccc1)C(N)=O [Gastrin]
EC50 (PTH chief cells): 0.42 nM

Molecule: synthetic human 1-34 PTH: synthetic human 1-34 parathyroid hormone used in cited pig studies (SVSEIQLMHNLGKHLNSMERVEWLRKKLQDVHNF; Parathyroid hormone; UniProt P01270 32-65, looked up, fragment)
increase in gastrin release [5]: approximately 10 fold

Molecule: COc1cccc(-c2cc(=O)c3ccccc3o2)c1N [PD98059]
effect on CaCl2-mediated gastrin release (isolated G cells [3]): could not be inhibited

Molecule: C[C@@H](O)[C@@H]1NC(=O)[C@H](CCCCN)NC(=O)[C@@H](Cc2c[nH]c3ccccc23)NC(=O)[C@H](Cc2ccccc2)NC(=O)[C@@H](NC(=O)[C@H](N)Cc2ccccc2)CSSC[C@@H](C(=O)N[C@H](CO)[C@@H](C)O)NC1=O [OCTR, octreotide]
increase of IC50 in low acid versus normal G cells (isolated rodent G cells): ~5 fold | IC50 (isolated rodent G cells; Low acid G-cells): 0.14 nM | IC50 (isolated rodent G cells; Normal G-cells): 0.028 nM

B1: native bovine PTH: native bovine parathyroid hormone used in cited pig studies (peptide, UniProt P01268 32-115, looked up)
Parathyroid hormone: AVSEIQFMHNLGKHLSSMERVEWLRKKLQDVHNFVALGASIAYRDGSSQRPRKKEDNVLVESHQKSLGEADKADVDVLIKAKPQ
modifications: Parathyroid hormone
notes: native bovine parathyroid hormone used in cited pig studies
increase in gastrin release [5]: approximately 10 fold

B2: PTH (parathyroid hormone) (ligand, UniProt P01270 32-115, looked up, species assumed)
Parathyroid hormone: SVSEIQLMHNLGKHLNSMERVEWLRKKLQDVHNFVALGAPLAPRDAGSQRPRKKEDNVLVESHEKSLGEADKADVNVLTKAKSQ
modifications: Parathyroid hormone
cAMP production in isolated G cells (PTH receptor on G cells): 4 nM | gastrin release from isolated G cells (PTH receptor on G cells): 60 nM

Source: patent US10709714B2 (CL BioSciences LLC, priority 2013, dated 2020)
